Drawing on paper PMC10254170, “Diastereoselective Synthesis of the Borylated D-Galactose Monosaccharide 3-Boronic-3-Deoxy-D-Galactose and Biological Evaluation in Glycosidase Inhibition and in Cancer for Boron Neutron Capture Therapy (BNCT)” (Molecules, 2023), this text covers GI50 and inhibition for 2 compounds.

Assay [1] deals with all cell lines (cancer cell lines and normal cell line). The assay can be described thus: Cancer screening, all cell lines. Format: cell-based. The following applies: all cancer cell lines and the normal cell line. On the procedure:
(§1) All test agents were prepared as stock solutions (20 mM) in dimethyl sulfoxide (DMSO) and stored at −20 °C. Cell lines used in the study included: HT29 (colorectal carcinoma), U87 and SJ-G2 (glioblastoma), MCF-7 (breast carcinoma), A2780 (ovarian carcinoma), H460 (lung carcinoma), A431 (skin carcinoma), Du145 (prostate carcinoma), BE2-C (neuroblastoma), MiaPaCa-2 (pancreatic carcinoma), SMA560 (spontaneous murine astrocytoma), and ADDP (Cis Res Ovarian), together with one non-tumor-derived normal breast cell line (MCF10A). All cell lines were incubated in a humidified atmosphere with 5 % CO2 at 37 °C. […]
(§2) Growth inhibition was determined by plating cells in duplicate in medium (100 µL) at a density of 2500–4000 cells per well in 96-well plates. […] After 72 h of drug exposure, growth inhibitory effects were evaluated using the (3-(4,5-dimethyltiazol-2-yl)-2,5-diphenyltetrazolium bromide) (MTT) assay and absorbance read at 540 nm. The percentage growth inhibition was calculated at a fixed concentration of 25 µM, based on the difference between the optical density values on day 0 and those at the end of drug exposure. Each data point is the mean ± the standard error of the mean (SEM) calculated from three replicates, which were performed on separate occasions and in separate cell line passages.

The test system of assay [2] is ADDP (Cis Res Ovarian) cell line. The experiment in a line: Cancer screening (MTT growth inhibition), ADDP. It counts as cell-based. The procedure: as §1, §2

`CC1(C)OCC(C2OC3OC(C)(C)OC3C2[B-]23OCC[NH+]2CCO3)O1` [Compound 6, 3-Deoxy-3-Boronodiethanolamine-1,2:5,6-Di-O-isopropylidene-α-D-galactofuranose]: in assay [1], the GI50 (usually the concentration giving 50% growth inhibition) is greater than 50 µM.

Take `OCC1OC(O)C(O)C(B(O)O)C1O` [Compound 7, 3-Boronic-3-Deoxy-D-galactose]: the 50% growth inhibitory concentration (GI50) is greater than 50 µM in assay [1] and greater than 50 µM in assay [2] (dose response, unit from table title). Further, the inhibition (usually the relative decrease from the control value, in per cent) at 25 µM in assay [2] (25 µM of drug, 72 h, MTT) is 2%.
